# Results taken from patent US6410545B1, “Lipid lowering quinazoline dietary supplement composition” (Parker Hughes Institute, priority 1998, dated 2002).
# Columns and labels:
# apo e−/− mice [1] = assay: Serum total cholesterol in apolipoprotein E deficient mice; format: in vivo; settings: for Mean serum total cholesterol: apo e−/− mice, 8 mg/kg/day, one week
# Experimental: Three- to four-week old apolipoprotein E deficient (apo E^−/−) mice were the progeny of breeding pairs of apo E knockout (apo EKO) mice obtained from Jackson Labs. (Bar Harbor, Me., USA). Mice were fed either regular rodent chow (5% fat and 0% cholesterol) (Teklad-LM 485, Harlan Teklad, Madison, Wis., USA), the Paigen's cocoa butter diet, or the Western diet (21.22% fat and 0.2% cholesterol) (Harlan Teklad, Madison, Wis., USA) for two weeks prior to treatment.
# (§1) Animals were treated with test compounds by intraperitoneal injection daily for 7 days. A range of doses was administered. Control animals received vehicle alone. The effect of quinazoline derivatives on total cholesterol, LDL, HDL, liver enzymes, and glucose was analyzed. The mice tissues were also examined histologically.
# Serum total cholesterol was measured enzymatically using the cholesterol kit from Sigma Chemical Co. (St. Louis, Mo., USA). For liver tissue lipid measurements, lipids were extracted from homogenized hepatic tissues using the method of Bligh and Dyer (Bligh, et al., Can. J. Biochem. Phys. 1959, 37:911-917). One gram of liver tissue was homogenized in 1 ml of distilled water and extracted with 4 ml of chloroform/methanol (1:1, v/v). The chloroform phase containing the lipids was evaporated under a stream of nitrogen, the lipids dissolved in 100 μL of isopropanol, and subjected to cholesterol determination as described above. Triglyceride (TG) contents were determined using the TG kit from Sigma Chemical Co.
# On regular rodent chow, the serum total cholesterol level of apo e^−/− mice was 836±57 mg/dL (n=47). After one week therapy with 8 mg/kg/day WHI-P164 (n=12), the mean serum total cholesterol level was reduced to 551±29 mg/dL (p=0.02).
# When challenged with a cholesterol-rich diet, these animals developed frank hypercholesterolemia due to delayed clearance of intestinal chylomicrons which shuttle the dietary cholesterol from the intestine to the liver. In the present study, all of the 46 ApoE-deficient mice that were fed Western diet (14) became severely hypercholesterolemic with a mean serum total cholesterol level of 1491±59 mg/dL. One week WHI-P164 therapy reduced the mean serum total cholesterol level of hypercholesterolemic apo e^−/− mice to 1194±84 mg/dL (p=O.006) at a dose level of 8 mg/kg/day (n=19) and to 876±57 mg/dL (p<0.0001) at a dose level of 40 mg/kg/day (n=17) (Table 3).
# apo e−/− mice [2] = assay: In vivo hepatic VLDL-TG production using Triton WR1339 in apo e−/− mice
# Experimental: C57B⅙ and apoE-deficient mice were treated with intraperitoneal injections of 50 μl vehicle or 40 mg/kg WHI-P164 in 50 μl vehicle for 7 consecutive days, followed by a 36 hour fast to shut down intestinal chylomicron synthesis. […] Blood samples were taken at 0 and 4 hours after Triton WR1339 injection and plasma TG levels were measured enzymatically using a commercially available enzymatic kit (Sigma Chemical Co.). Alternatively, food was returned to the mice after a 36 hour fast and blood samples were collected at 0, 1, 3, 6, and 9 hours after returning the food. Accumulation of chylomicron-TG was determined as accumulation of plasma TG.
# To determine if WHI-P164 prevent hepatic TG accumulation by relieving 9 block in VLDL-TG secretion or by inhibiting upstream TG synthesis, in vivo hepatic VLDL-TG synthesis was analyzed. Synthesis was determined by following the accumulation of VLDL-TG after shutting down VLDL catabolism with Triton WR1339 injection and intestinal chylomicron synthesis with a 36 hours fast.
# C57B⅙ and apoE-deficient mice were treated with intra peritoneal injections of vehicle or 40 mg/kg WHI-P164 (in 50 μl vehicle) for 7 consecutive days, followed by a 36 hour fast to shut down intestinal chylomicron synthesis. […] Blood samples (50 μl) were taken at 0 and 4 hours after Triton WR1339 injection and plasma TG was measured enzymatically using a commercially available enzymatic kit (Sigma Chemical Co.), as previously reported (Kuipers, supra).
# C57B⅙ mice = assay: Blood chemistry, weight and histopathology of treated C57B⅙ mice; format: in vivo
# Experimental: […] A range of doses was administered. Control animals received vehicle alone. The effect of quinazoline derivatives on total cholesterol, LDL, HDL, liver enzymes, and glucose was analyzed. The mice tissues were also examined histologically.
# (§2) Serum levels alanine aminotransferase (ALT), alkaline phosphatase (ALP), lactate dehydrogenase (LDH), blood urea nitrogen (BUN), creatinine, creatinine phosphokinase (CPK), and glucose were determined by using a Synchron CX5 Clinical System (Beckman Instruments, Inc., Fullerton, Calif.) following manufacturer's instructions. For the glucose tolerance test, blood glucose levels were determined using the portable One Touch Profile glucose meter (Lifescan, Milpitas, Calif., USA).
# (§3) At the end of the experiment, the animals were sacrificed and the harvested tissues were fixed in 10% phosphate buffered formalin overnight, embedded, sectioned, and stained by hematoxylin and eosin (H&E). The stained sections were examined for pathological changes. For Oil Red O staining, the liver was excised and snap frozen in liquid nitrogen. Five micrometer thick sections were obtained using the LeicaCM1800 cryostat (Heerbrugg, Switzerland), stained in 0.5% Oil Red O in propylene glycol for 1 hour, destained in 85% propylene glycol for 1 minute, rinsed twice in distilled water, counterstained in Mayer's hematoxylin for a few seconds, rinsed twice in distilled water, and mounted in Crystalmount (Biomedia Corp., Foster City, Calif.). The Oil Red O stainable material at 400 X magnification was quantitated using the ImagePro plus program (Media Cybernetics, Silver Spring, Md., USA) in conjunction with a 3CCD camera (DAGE-MTI Inc., Michigan City, USA).
# apo e−/− mice [3] = assay: Blood chemistry and histopathology of treated apo e−/− mice; format: in vivo; settings: 8 mg/kg/day or 40 mg/kg/day
# Experimental: as §1, §2, §3
# [4] = C57B⅙ mice, indicated dose levels
smiles,measurement,setting,value
"COc1cc2ncnc(C(=O)c3cccc(Br)c3)c2cc1OC [WHI-P164, 4-(3′-bromobenzoyl)-6,7-dimethoxyquinazoline]",Serum total cholesterol,"apo e−/− mice [1]; apo e−/− (C57B1/6) mice, Western diet two weeks, then drug 1 week at 40 mg/kg/day, 40 mg/kg/day",876 ± 57 mg/dL
same,Mean serum total cholesterol,apo e−/− mice [1]; Western diet,1194 ± 84 mg/dL
same,Mean serum total cholesterol,apo e−/− mice [1]; regular rodent chow,551 ± 29 mg/dL
same,Reduction of total cholesterol levels,apo e−/− mice [1]; hypercholesterolemic apo e−/− mice,41%
same,"Triglyceride, Pre-Triton WR 1339","apo e−/− mice [2]; apo e−/− (C57B1/6), 40 mg/kg i.p. 7 days, 36 hour fast",155 ± 14 (n = 10) mg/dL
same,"Triglyceride, Post-Triton WR 1339","apo e−/− mice [2]; apo e−/− (C57B1/6), 40 mg/kg i.p. 7 days, 36 hour fast, 4 hours after Triton WR1339",465 ± 46 (n = 8) mg/dL
same,Accumulation of VLDL-TG after Triton WR1339 treatment,"apo e−/− mice [2]; apo e−/− mice, 40 mg/kg, versus vehicle",significantly less accumulation of VLDL-TG than vehicle-treated control mice
same,Histopathologic examination of tissues,C57B⅙ mice; [4],did not reveal any drug related toxic lesions
same,"Liver enzymes (ALT, ALP, LDH) and BUN/Creatinine",C57B⅙ mice; [4],remained within normal limits
same,Clinical or laboratory signs of toxicity,"C57B⅙ mice; C57B⅙ mice, indicated dose levels (1.6-16 mg/kg/day)",not associated with any obvious clinical or laboratory signs of toxicity
same,ALP,"C57B⅙ mice; treated C57B1/6 mice, 1 week",101 ± 3 IU/L
same,BUN,"C57B⅙ mice; treated C57B1/6 mice, 1 week",25.4 ± 2.0 mg/dL
same,Glucose,"C57B⅙ mice; treated C57B1/6 mice, 1 week",201 ± 18 mg/dL
same,LD-L,"C57B⅙ mice; treated C57B1/6 mice, 1 week",1402 ± 144 IU/L
same,Net weight change,"C57B⅙ mice; treated C57B1/6 mice, 1 week",-0.26 ± 0.22 g
same,ALP,"C57B⅙ mice; treated C57B1/6 mice, 2 weeks",94 ± 10 IU/L
same,ALT,"C57B⅙ mice; treated C57B1/6 mice, 2 weeks",148 ± 54 IU/L
same,LD-L,"C57B⅙ mice; treated C57B1/6 mice, 2 weeks",459 ± 83 IU/L
same,Net weight change,"C57B⅙ mice; treated C57B1/6 mice, 2 weeks",1.88 ± 0.42 g
same,Clinical or laboratory signs of toxicity,apo e−/− mice [3],not associated with any obvious clinical or laboratory signs of toxicity
same,Histopathologic examination of tissues,apo e−/− mice [3],did not reveal any drug related toxic lesions
same,"Liver enzymes (ALT, AST, ALP, LDH), CPK levels, and BUN/Creatinine",apo e−/− mice [3],remained within normal limits
